Data reported in patent US20130123481A1, “MODIFIED NUCLEOSIDES, NUCLEOTIDES, AND NUCLEIC ACIDS, AND USES THEREOF” (MODERNA THERAPEUTICS, priority 2011, published 2013).
Read-outs that look alike come from different tables or passages of the source. Blank lines part the entries; values can stand above or below the molecule they belong to.

Experiments:
female BALB/C mice = test: In Vivo Detection of Innate Immune Response Study - human G-CSF protein in serum; conditions: human G-CSF in mouse serum; I.M.; 8 hours after dosing
Experimental: Blood is collected at 8 hours after dosing.

[1] = system: PBMC, interferon-alpha (IFN-alpha); test: 2′Fluoro Chemistries in PBMC - IFN-alpha production; format: cell-based, human; conditions: G-CSF modified mRNA, ELISA, average of 3 donors
[2] = system: PBMC, tumor necrosis factor-alpha (TNF-alpha); test: 2′Fluoro Chemistries in PBMC - TNF-alpha production; format: cell-based, human; conditions: G-CSF modified mRNA, ELISA, average of 2 donors
[3] = system: human PBMC, tumor necrosis factor alpha (TNF-alpha)
[4] = system: female BALB/C mice, interferon-alpha (IFN-alpha); conditions: mouse, in vivo
HeLa cells = test: In vitro Screening in HeLa Cells - luciferase (RLU); format: cell-based, human; design: key to Protein (Luc; HeLa): the protein production of HeLa is judged by “+,” “+/−” and “−”; the protein production of HeLa is judged by “+,” “+/−” and “−”; the protein production of HeLa is judged by “+,” “+/−” and “−”
Experimental: The 2′Fluoro-modified mRNA were then transfected into HeLa cells to assess protein production in a cell context and the same mRNA were also assessed in a cell-free rabbit reticulocyte system. A control of unmodified luciferase (natural luciferase) was used for both transcription experiments, a control of untreated and mock transfected (Lipofectamine 2000 alone) were also analyzed for the HeLa transfection and a control of no RNA was analyzed for the rabbit reticulysates.
For the HeLa transfection experiments, the day before transfection, 20,000 HeLa cells (ATCC no. CCL-2; Manassas, Va.) were harvested by treatment with Trypsin-EDTA solution (LifeTechnologies, Grand Island, N.Y.) and seeded in a total volume of 100 ul EMEM medium (supplemented with 10% FCS and 1× Glutamax) per well in a 96-well cell culture plate (Corning, Manassas, Va.). The cells were grown at […] in 5% CO2 atmosphere overnight. […] Lipofectamine 2000 (LifeTechnologies, Grand Island, N.Y.) was used as transfection reagent and 0.2 ul were diluted in 10 ul final volume of OPTI-MEM. After […] of incubation at room temperature, both solutions were combined and incubated an additional 15 minute at room temperature. Then the 20 ul combined solution was added to the 100 ul cell culture medium containing the HeLa cells and incubated at room temperature. After 18 to 22 hours of incubation cells expressing luciferase were lysed with 100 ul of Passive Lysis Buffer (Promega, Madison, Wis.) according to manufacturer instructions. Aliquots of the lysates were transferred to white opaque polystyrene 96-well plates (Corning, Manassas, Va.) and combined with 100 ul complete luciferase assay solution (Promega, Madison, Wis.). The lysate volumes were adjusted or diluted until no more than 2 mio relative light units (RLU) per well were detected for the strongest signal producing samples and the RLUs for each chemistry tested are shown in Table 42. The plate reader was a BioTek Synergy H1 (BioTek, Winooski, Vt.). The background signal of the plates without reagent was about 200 relative light units per well.
To evaluate using of 2′fluoro-modified mRNA in combination with other modification a series of mRNA were transcribed using either wild-type T7 polymerase (non-fluoro-containing compounds) or using mutant T7 polymerases (fluyoro-containing compounds) as described in Example 86. All modified mRNA were tested by in vitro transfection in HeLa cells.
After 18 to 22 hours of incubation cells expressing luciferase were lysed with 100 ul of Passive Lysis Buffer (Promega, Madison, Wis.) according to manufacturer instructions. Aliquots of the lysates were transferred to white opaque polystyrene 96-well plates (Corning, Manassas, Va.) and combined with 100 ul complete luciferase assay solution (Promega, Madison, Wis.). The lysate volumes were adjusted or diluted until no more than 2 mio relative light units (RLU) per well were detected for the strongest signal producing samples and the RLUs for each chemistry tested are shown in Table 44. The plate reader was a BioTek Synergy H1 (BioTek, Winooski, Vt.). The background signal of the plates without reagent was about 200 relative light units per well.

wild-type T7 polymerase = wild-type T7 polymerase (Escherichia phage T7, UniProt P00573); test: In Vitro Transcription with Wild-Type T7 Polymerase (transcription and capping yield); conditions: Table 48 non-naturally occurring, Pass/Fail
Chain of wild-type T7 polymerase (P00573 whole entry): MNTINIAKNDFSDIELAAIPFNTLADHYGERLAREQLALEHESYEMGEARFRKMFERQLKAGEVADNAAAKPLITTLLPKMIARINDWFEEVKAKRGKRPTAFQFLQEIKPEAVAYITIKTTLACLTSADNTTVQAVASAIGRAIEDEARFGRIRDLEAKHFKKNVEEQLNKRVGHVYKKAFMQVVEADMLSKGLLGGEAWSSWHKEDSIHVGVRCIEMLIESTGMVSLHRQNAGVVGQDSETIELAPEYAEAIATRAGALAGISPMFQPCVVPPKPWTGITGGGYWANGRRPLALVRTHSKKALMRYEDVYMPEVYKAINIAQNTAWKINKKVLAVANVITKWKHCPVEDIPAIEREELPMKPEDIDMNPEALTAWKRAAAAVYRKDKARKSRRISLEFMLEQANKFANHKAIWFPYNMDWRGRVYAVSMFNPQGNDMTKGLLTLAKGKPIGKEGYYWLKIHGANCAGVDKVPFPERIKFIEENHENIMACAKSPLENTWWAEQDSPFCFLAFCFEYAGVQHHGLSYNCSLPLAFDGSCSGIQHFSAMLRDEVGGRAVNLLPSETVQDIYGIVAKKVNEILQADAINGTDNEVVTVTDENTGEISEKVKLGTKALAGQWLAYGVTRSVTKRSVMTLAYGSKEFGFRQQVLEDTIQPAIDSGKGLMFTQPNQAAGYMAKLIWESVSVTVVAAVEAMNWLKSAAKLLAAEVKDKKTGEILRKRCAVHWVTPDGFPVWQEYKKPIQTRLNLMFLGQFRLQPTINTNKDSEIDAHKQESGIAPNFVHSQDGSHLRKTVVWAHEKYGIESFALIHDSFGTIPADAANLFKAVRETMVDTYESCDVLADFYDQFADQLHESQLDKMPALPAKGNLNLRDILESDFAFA
Experimental: (§1) The luciferase and G-CSF modified mRNA were also subjected to an enzymatic capping reaction and each modified mRNA capping reaction was evaluated for yield by spectrophometic measurement (OD260) and correct size assessed using bioanalyzer.

[5] = molecular target: T1, mutant T7 polymerase (Durascribe T7 Transcription kit) (Escherichia phage T7, UniProt P00573, Y639F); conditions: Table 48 non-naturally occurring, in vitro transcription using mutant T7 polymerase
T1 construct: purchased Epicentre, Madison, Wis; DS010925
T1 sequence (P00573 whole entry Y639F): as the sequence (P00573 whole entry) above, with Y639F counted along it
Experimental: as §1

[6] = system: Rabbit Reticulocyte Lysate; test: In Vitro Screening in Rabbit Reticulocyte Lysates - luciferase (RLU); format: biochemical; conditions: 250 ng 2′-fluoro-containing luciferase mRNA, 60 minutes, 30° C., background about 160 RLU
Experimental: The diluted luciferase was added to 40 ul of freshly prepared Rabbit Reticulocyte Lysate and the in vitro translation reaction was done in a standard 1.5 mL polypropylene reaction tube (Thermo Fisher Scientific, Waltham, Mass.) at 30° C. in a dry heating block. The translation assay was done with the Rabbit Reticulocyte Lysate (nuclease-treated) kit (Promega, Madison, Wis.) according to the manufacturer's instructions. The reaction buffer was supplemented with a one-to-one blend of provided amino acid stock solutions devoid of either Leucine or Methionine resulting in a reaction mix containing sufficient amounts of both amino acids to allow effective in vitro translation.
After 60 minutes of incubation, the reaction was stopped by placing the reaction tubes on ice. […] The volumes of the in vitro translation reactions were adjusted or diluted until no more than 2 mio relative light units (RLUs) per well were detected for the strongest signal producing samples and the RLUs for each chemistry tested are shown in Table 29. The plate reader was a BioTek Synergy H1 (BioTek, Winooski, Vt.). […]
The 2′Fluoro-modified mRNA were then transfected into HeLa cells to assess protein production in a cell context and the same mRNA were also assessed in a cell-free rabbit reticulocyte system. […]

[7] = system: female BALB/C mice, interferon-alpha (IFN-alpha); test: In Vivo Detection of Innate Immune Response Study - mouse IFN-alpha in serum

- IFN-alpha expression [4]: 40.97 pg/mL
Molecule: CCOCc1nc2c(N)nc3ccccc3c2n1CC(C)(C)O [Compound R-848]
- G-CSF protein (female BALB/C mice): 3.4 pg/mL
- IFN-alpha: 3 Donor Average [1]: 45 pg/mL
- TNF-alpha: 2 Donor Average (pg/ml) [2]: 8,235 pg/ml
- TNF-alpha: 3 Donor Average [3]: 1477 pg/mL

Molecule: 2′-F-adenosine
- Protein (Luc; HeLa) (HeLa cells; Table 48 non-naturally occurring, ** mutant T7 polymerase): −**
- IVT (G-CSF), first result (wild-type T7 polymerase; G-CSF mRNA in vitro transcription): Fail/Fail**
- IVT (Luc), first result (wild-type T7 polymerase; luciferase mRNA in vitro transcription): Fail
- IVT (G-CSF), second result ** [5]: Fail/Fail**
- IVT (Luc), second result ** [5]: Pass

Molecule: Natural Luciferase: natural luciferase mRNA (SEQ ID NO: 3), Cap1 [reference compound]
- RLU (HeLa cells; 83 ng 2′fluoro-containing luciferase mRNA, Lipofectamine 2000, HeLa cells): 133,853.5 RLU
- RLU (HeLa cells; 83 ng luciferase mRNA with combination of modifications, HeLa cells, 18 to 22 hours, background about 200 RLU): 30,801 RLU
- RLU [6]: 2,159,968 RLU

B1: GCSF mRNA unmod: G-CSF mRNA (SEQ ID NO: 1) unmodified, 5′ cap of Cap1 (nucleic acid, listed as Homo Sapiens)
chain: GGGAAAUAAGAGAGAAAAGAAGAGUAAGAAGAAAUAUAAGAGCCACCAUGGCCGGUCCCGCGACCCAAAGCCCCAUGAAACUUAUGGCCCUGCAGUUGCUGCUUUGGCACUCGGCCCUCUGGACAGUCCAAGAAGCGACUCCUCUCGGACCUGCCUCAUCGUUGCCGCAGUCAUUCCUUUUGAAGUGUCUGGAGCAGGUGCGAAAGAUUCAGGGCGAUGGAGCCGCACUCCAAGAGAAGCUCUGCGCGACAUACAAACUUUGCCAUCCCGAGGAGCUCGUACUGCUCGGGCACAGCUUGGGGAUUCCCUGGGCUCCUCUCUCGUCCUGUCCGUCGCAGGCUUUGCAGUUGGCAGGGUGCCUUUCCCAGCUCCACUCCGGUUUGUUCUUGUAUCAGGGACUGCUGCAAGCCCUUGAGGGAAUCUCGCCAGAAUUGGGCCCGACGCUGGACACGUUGCAGCUCGACGUGGCGGAUUUCGCAACAACCAUCUGGCAGCAGAUGGAGGAACUGGGGAUGGCACCCGCGCUGCAGCCCACGCAGGGGGCAAUGCCGGCCUUUGCGUCCGCGUUUCAGCGCAGGGCGGGUGGAGUCCUCGUAGCGAGCCACCUUCAAUCAUUUUUGGAAGUCUCGUACCGGGUGCUGAGACAUCUUGCGCAGCCGUGAAGCGCUGCCUUCUGCGGGGCUUGCCUUCUGGCCAUGCCCUUCUUCUCUCCCUUGCACCUGUACCUCUUGGUCUUUGAAUAAAGCCUGAGUAGGAAG
modifications: Cap1
- G-CSF protein (female BALB/C mice): 605.6 pg/mL
- PC Ratio ([7]; G-CSF protein / IFN-alpha in mouse serum): 9
- IFN-alpha expression ([7]; mouse IFN-alpha in serum, I.M., 8 hours after dosing): 67.01 pg/mL
